Test results taken from US9115151B2, “Substituted 2,10-dihydro-9-oxa-1,2,4A-triazaphenanthren-3-ones and uses thereof” (AbbVie Inc., priority 2012, dated 2015).
Structures can show the parent of a compound that is named as a salt.

Legend:
[1] = target: T1, PKCθ (Homo sapiens, UniProt Q04759); experiment: In vitro enzyme assay (time-resolved fluorescence kinase assay), PKCθ, 100 μM ATP; type: biochemical
T1 construct: His6; purchased Millipore; host or cells: baculovirus in Sf21 cells
Method in brief: (§1)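 Read-out was time-resolved fluorescence, corrected for a minus-enzyme blank and converted to percent activity relative to enzyme without drug. They were stopped with EDTA.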

[2] = tested on: CD3/CD28 induced IL-2 in human T-Blasts; experiment: T-Blasts CD3/CD28 induced IL-2 assay; type: cell-based; conditions: read-out: CD3/CD28-stimulated IL2 in T-blasts EC50
Method in brief: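 PHA-generated human T-blasts, 2×10^5 per well, preincubated 30 min with 8-point 1/3 compound dilutions in duplicate, then stimulated with anti-CD3+anti-CD28 (5 μg/mL final) for 24 h at 37° C. Supernatant IL-2 measured; MTT toxicity run on remaining cells.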

[3] = target: T2, PKCα (Homo sapiens, UniProt P17252); experiment: In vitro enzyme assay (time-resolved fluorescence kinase assay), PKCα, 100 μM ATP; type: biochemical; conditions: 100 μM ATP; read-out: PKCα enzyme IC50
T2 construct: His6; purchased Millipore; host or cells: baculovirus in Sf21 cells
Method in brief: as §1

T1 sequence (Q04759 whole entry): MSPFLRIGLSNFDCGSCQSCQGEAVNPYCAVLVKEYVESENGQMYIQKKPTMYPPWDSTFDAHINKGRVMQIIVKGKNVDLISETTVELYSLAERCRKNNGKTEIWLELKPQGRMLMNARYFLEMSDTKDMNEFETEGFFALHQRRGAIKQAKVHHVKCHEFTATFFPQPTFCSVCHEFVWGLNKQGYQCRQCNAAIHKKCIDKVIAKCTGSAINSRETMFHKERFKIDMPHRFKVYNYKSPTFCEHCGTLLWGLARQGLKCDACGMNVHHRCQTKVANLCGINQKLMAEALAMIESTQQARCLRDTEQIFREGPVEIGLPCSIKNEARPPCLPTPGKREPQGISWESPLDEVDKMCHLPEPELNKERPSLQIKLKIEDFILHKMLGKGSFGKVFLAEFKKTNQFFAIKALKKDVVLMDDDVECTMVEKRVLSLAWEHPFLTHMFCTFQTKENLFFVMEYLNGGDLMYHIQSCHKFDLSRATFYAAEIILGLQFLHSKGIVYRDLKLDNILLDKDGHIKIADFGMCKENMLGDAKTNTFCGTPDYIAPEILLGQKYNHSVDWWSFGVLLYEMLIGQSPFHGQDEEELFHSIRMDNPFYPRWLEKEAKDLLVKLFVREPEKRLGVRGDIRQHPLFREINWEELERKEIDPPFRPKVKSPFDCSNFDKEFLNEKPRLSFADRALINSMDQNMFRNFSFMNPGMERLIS

Row | Compound | IC50 [1] | EC50 [2] | IC50 [3]
1 | CC1C(=O)NN=C2COc3cc4ccn(C5CNC5)c4cc3N21 (stereo not drawn) [Example 103, 10-(Azetidin-3-yl)-1-methyl-5,10-dihydro-1H-[1,2,4]triazino[4′,3′:4,5][1,4]oxazino[2,3-f]indol-2(3H)-one trifluoroacetic acid] | < 250 nM | 250 to 1000 nM | 1000 to 10000 nM
2 | C[C@@H]1C(=O)NN=C2COc3ccc([C@H]4CCN[C@H](Cc5ccccc5)C4)cc3N21 (single isomer, unassigned) [Example 109-1, trifluoroacetic acid] | < 250 nM | < 250 nM | 1000 to 10000 nM
3 | C[C@@H]1C(=O)NN=C2COc3cc(C4=CCC(F)(F)CC4)c(C4CCNCC4)cc3N21 [Example 211] | < 250 nM | 250 to 1000 nM | 1000 to 10000 nM
4 | CC1C(=O)NN=C2COc3cc(-c4cccc5ccccc45)c(NC4CNC4)cc3N21 (racemic) [Example 52] | < 250 nM | 250 to 1000 nM | 1000 to 10000 nM
5 | CCc1cc2c(cc1NC1CNC1)N1C(=NNC(=O)C1C)CO2 (stereo not drawn) [Example 59] | < 250 nM | 250 to 1000 nM | 1000 to 10000 nM
6 | C[C@@H]1C(=O)NN=C2COc3cc4c(cc3N21)N([C@@H]1CCNC1)CC4 [Example 153, (R)-1-Methyl-10-(R)-pyrrolidin-3-yl-3,5,9,10-tetrahydro-8H-6-oxa-3,4,10,11b-tetraaza-cyclopenta[b]phenanthren-2-one hydrochloric acid] | 250 to 1000 nM | 1000 to 10000 nM | 1000 to 10000 nM
7 | C[C@@H]1C(=O)NN=C2COc3cc(-c4c(Cl)cccc4N4CCNCC4)ccc3N21 [Example 131] | < 250 nM | 250 to 1000 nM | 1000 to 10000 nM
8 | Cc1cc2c(cc1OC1CNC1)N1C(=NNC(=O)C1C)CO2 (stereo not drawn) [Example 67] | < 250 nM | < 250 nM | 1000 to 10000 nM
9 | C[C@@H]1C(=O)NN=C2COc3cc(C(F)(F)F)c([C@@H](C)C4(C)CNC4)cc3N21 (single isomer, unassigned) [Example 147-1, trifluoroacetic acid] | < 250 nM | < 250 nM | 250 to 1000 nM
10 | CC1C(=O)NN=C2COc3ccc(C4CCNCC4)cc3N21 (stereo not drawn) [Example 71, 4-Methyl-6-piperidin-4-yl-2,10-dihydro-9-oxa-1,2,4a-triaza-phenanthren-3-one trifluoroacetic acid] | < 250 nM | < 250 nM | 1000 to 10000 nM
11 | C[C@@H]1C(=O)NN=C2COc3cc([C@H](C)C(F)(F)F)c(NC4CNC4)cc3N21 [Example 62] | < 250 nM | 250 to 1000 nM | 1000 to 10000 nM
12 | CC1C(=O)NN=C2COc3cc4c(cc3N21)N(C1(C)CNC1)CC4 (stereo not drawn) [Example 158, 1-Methyl-10-(3-methyl-azetidin-3-yl)-3,5,9,10-tetrahydro-8H-6-oxa-3,4,10,11b-tetraaza-cyclopenta[b]phenanthren-2-one 2,2,2-trifluoroacetate] | < 250 nM | < 250 nM | 1000 to 10000 nM
13 | CC1C(=O)NN=C2COc3cc(-c4ccccc4)c(NC4CNC4)cc3N21 (racemic) [Example 51] | < 250 nM | 250 to 1000 nM | 1000 to 10000 nM
14 | CC1C(=O)NN=C2COc3cc(Oc4ccccc4)c(NC4CNC4)cc3N21 (stereo not drawn) [Example 106, 6-(Azetidin-3-ylamino)-4-methyl-7-phenoxy-2,10-dihydro-9-oxa-1,2,4a-triaza-phenanthren-3-one trifluoroacetic acid] | < 250 nM | 250 to 1000 nM | 1000 to 10000 nM
15 | CC1C(=O)NN=C2COc3cc(-c4ccc5scnc5c4)c(NC4CNC4)cc3N21 (racemic) [Example 37] | < 250 nM | < 250 nM | 1000 to 10000 nM
16 | C[C@H]1C(=O)NN=C2COc3cc4ccn([C@@]5(C)CCNC5)c4cc3N21 [Example 162, (S)-1-Methyl-10-((S)-3-methyl-pyrrolidin-3-yl)-3,5-dihydro-10H-6-oxa-3,4,10,11b-tetraaza-cyclopenta[b]phenanthren-2-one] | < 250 nM | < 250 nM | 250 to 1000 nM
17 | CC(C)N1CC(C)(Nc2cc3c(cc2C2CCOCC2)OCC2=NNC(=O)C(C)N23)C1 (stereo not drawn) [Example 126, 9-((1-Isopropyl-3-methylazetidin-3-yl)amino)-1-methyl-8-(tetrahydro-2H-pyran-4-yl)-3,5-dihydrobenzo[5,6][1,4]oxazino[3,4-c][1,2,4]triazin-2(1H)-one trifluoroacetic acid] | < 250 nM | 250 to 1000 nM | 1000 to 10000 nM
18 | CC1C(=O)NN=C2COc3cc(-c4ccc(N(C)C)cc4)c(NC4CNC4)cc3N21 (racemic) [Example 19] | 250 to 1000 nM | < 250 nM | 1000 to 10000 nM
19 | C[C@@H]1C(=O)NN=C2COc3cc4ccn(C5(C)CNC5)c4cc3N21 [Example 148, (R)-1-Methyl-10-(3-methyl-azetidin-3-yl)-3,5-dihydro-10H-6-oxa-3,4,10,11b-tetraaza-cyclopenta[b]phenanthren-2-one hydrochloride] | < 250 nM | < 250 nM | 250 to 1000 nM
20 | Cc1cc2c(cc1N(C)C1CNC1)N1C(=NNC(=O)C1C)CO2 (stereo not drawn) [Example 55, 6-(Azetidin-3-yl-methyl-amino)-4,7-dimethyl-2,10-dihydro-9-oxa-1,2,4a-triaza-phenanthren-3-one trifluoroacetic acid] | 250 to 1000 nM | 1000 to 10000 nM | 1000 to 10000 nM

Now from value to compound:

Row | IC50 [1] | EC50 [2] | IC50 [3] | Compound
21 | < 250 nM | 250 to 1000 nM | 1000 to 10000 nM | COCCN1CC(C)([C@H](C)c2cc3c(cc2-c2ccccc2F)OCC2=NNC(=O)[C@@H](C)N23)C1 [Example 145]
22 | < 250 nM | 250 to 1000 nM | 1000 to 10000 nM | C[C@@H]1C(=O)NN=C2COc3cc(-c4ccccc4F)c(N4CCNCC4)cc3N21 [Example 222, (R)-7-(2-Fluoro-phenyl)-4-methyl-6-piperazin-1-yl-2,10-dihydro-9-oxa-1,2,4a-triaza-phenanthren-3-one]
23 | < 250 nM | 250 to 1000 nM | 1000 to 10000 nM | CC[C@H]1CNCCN1c1cc2c(cc1-c1ccccc1F)OCC1=NNC(=O)[C@@H](C)N12 [Example 227]
24 | < 250 nM | < 250 nM | 250 to 1000 nM | C[C@@H]1C(=O)NN=C2COc3cc(-c4ccccc4F)c(N(C)C4(C)CN(C[C@@H](C)O)C4)cc3N21 [Example 189]
25 | < 250 nM | 250 to 1000 nM | 1000 to 10000 nM | C[C@@H]1C(=O)NN=C2COc3cc(-c4ccccc4F)c([C@H]4CCCNC4)cc3N21 [Example 216]
26 | < 250 nM | 250 to 1000 nM | 1000 to 10000 nM | CC[C@H]1CN(C)CCN1c1cc2c(cc1-c1ccccc1F)OCC1=NNC(=O)[C@@H](C)N12 [Example 234]
27 | < 250 nM | < 250 nM | 250 to 1000 nM | C[C@@H]1C(=O)NN=C2COc3cc(-c4ccccc4F)c([C@@H](C)C4(C)CN(CCO)C4)cc3N21 [Example 141]
28 | < 250 nM | < 250 nM | 250 to 1000 nM | C[C@@H]1C(=O)NN=C2COc3cc(-c4ccccc4F)c([C@@H](C)C4(C)CN(C[C@@H](C)O)C4)cc3N21 [Example 140]
29 | < 250 nM | 250 to 1000 nM | 250 to 1000 nM | C[C@@H]1C(=O)NN=C2COc3cc(-c4ccccc4F)c(N(C)C4(C)CN(C5COC5)C4)cc3N21 [Example 194]
30 | < 250 nM | < 250 nM | 1000 to 10000 nM | CC1C(=O)NN=C2COc3cc(-c4ccccc4OC(F)(F)F)c(NC4CNC4)cc3N21 (racemic) [Example 27]
